# Results published in patent US9139532B2, “Pyrazolyl guanidine F1F0-atpase inhibitors and therapeutic uses thereof” (Lycera Corporation, priority 2010, dated 2015).
# Where two headings read alike, the source gives them in different places.
# How the values were obtained:
# F1F0-ATPase = biological target: T1, F1F0-ATPase (Bos taurus, UniProt P13621); assay: Inhibition of F1F0-ATPase activity in synthesizing ATP; type: biochemical; conditions: inhibition of ATP synthesis by F1F0-ATPase; read-out: ATP Syn IC50
# T1 construct: from tissue
# Ramos cells = assay: Cytotoxicity in Ramos cells; type: cell-based; conditions: cytotoxicity in Ramos cells, read-out: Ramos Cell EC50
Structure (SMILES),IC50 (F1F0-ATPase) [µM],EC50 (Ramos cells) [µM],EC50 (Ramos cells; Homo sapiens) [µM]
Cc1ccccc1CN/C(=N/C(=O)c1cccc(F)c1)Nc1cc(-c2ccc(F)cc2)[nH]n1 [Compound A-399],< 10,< 10,–
COc1cccc(CNC(=NC(=O)c2ccc(Cl)cc2)Nc2cc(-c3ccc(F)cc3)n[nH]2)c1 [Compound A-400],< 10,–,< 10
Cc1ccccc1CNC(=NC(=O)c1ccc(Cl)cc1)Nc1cc(-c2ccc(F)cc2)n[nH]1 [Compound A-401],< 10,–,< 10
CCOc1cccc(C(=O)/N=C(\Nc2cc(-c3ccc(F)cc3)[nH]n2)NC(C)(C)C)c1 [Compound A-402],< 10,< 10,–
CC(C)(C)NC(=NC(=O)c1cc(F)c(F)c(F)c1)Nc1cc(-c2ccc(F)cc2)n[nH]1 [Compound A-403],< 10,–,< 10
Cc1cc(C(=O)N=C(Nc2cc(C(F)(F)F)[nH]n2)NC(C)CO)ccc1F (stereo not drawn) [Compound A-404],< 10,> 10,–
Cc1cc(C(=O)/N=C(\Nc2cc(-c3ccc(F)cc3)[nH]n2)N[C@@H](C)CO)ccc1F [Compound A-405],< 10,< 10,–
O=C(/N=C(/NCC1CCOC1)Nc1cc(C(F)(F)F)[nH]n1)c1ccc(F)cc1 (stereo not drawn) [Compound A-406],< 10,> 10,–
COCCCN/C(=N/C(=O)c1ccc(F)cc1)Nc1cc(C(F)(F)F)[nH]n1 [Compound A-409],< 10,> 10,–
CCOCCN/C(=N/C(=O)c1ccc(F)cc1)Nc1cc(C(F)(F)F)[nH]n1 [Compound A-410],< 10,> 10,–
O=C(/N=C(/NCc1nccs1)Nc1cc(C(F)(F)F)[nH]n1)c1ccc(F)cc1 [Compound A-411],< 10,> 10,–
CC1(C)OCC(CN/C(=N/C(=O)c2ccc(F)cc2)Nc2cc(C(F)(F)F)[nH]n2)O1 (stereo not drawn) [Compound A-412],< 10,> 10,–
O=C(/N=C(/NCC1CCCO1)Nc1cc(C(F)(F)F)[nH]n1)c1ccc(F)cc1 (stereo not drawn) [Compound A-413],< 10,> 10,–
Cc1ccc(CN/C(=N/C(=O)c2ccc(F)cc2)Nc2cc(C(F)(F)F)[nH]n2)o1 [Compound A-414],< 10,< 10,–
O=C(/N=C(\Nc1cc(C(F)(F)F)[nH]n1)NC1(CO)CCCC1)c1ccc(F)cc1 [Compound A-415],< 10,> 10,–
Cc1csc(CN/C(=N/C(=O)c2ccc(F)cc2)Nc2cc(C(F)(F)F)[nH]n2)n1 [Compound A-416],< 10,> 10,–
Cc1cc(-c2cc(N/C(=N\C(=O)c3ccc(C(F)(F)F)cc3)NC(C)(C)C)n[nH]2)ccc1F [Compound A-417],< 10,< 10,–
Cc1cc(-c2cc(N/C(=N\C(=O)c3ccc(F)cc3)NC(C)(C)C)n[nH]2)ccc1F [Compound A-418],< 10,< 10,–
O=C(N=C(Nc1cc(F)cc(Cl)c1)Nc1cc(-c2cc(F)cc(F)c2)[nH]n1)c1ccc(F)c(F)c1 [Compound A-419],< 10,–,< 10
CC(C)(C)N/C(=N/C(=O)c1ccc(F)c(F)c1)Nc1cc(-c2cc(F)cc(F)c2)[nH]n1 [Compound A-420],< 10,< 10,–
O=C(/N=C(\Nc1cc(-c2cccc(C(F)(F)F)c2)[nH]n1)NC1CCCC1)c1ccc(C(F)(F)F)cc1 [Compound A-421],< 10,< 10,–
O=C(N=C(Nc1cc(F)cc(Cl)c1)Nc1cc(-c2cccc(C(F)(F)F)c2)[nH]n1)c1ccc(F)c(F)c1 [Compound A-422],< 10,–,< 10
CC(C)(C)N/C(=N/C(=O)c1ccc(F)c(F)c1)Nc1cc(-c2cccc(C(F)(F)F)c2)[nH]n1 [Compound A-423],< 10,< 10,–
COc1ccccc1CN/C(=N/C(=O)c1ccc(C(F)(F)F)cc1)Nc1cc(C(F)(F)F)[nH]n1 [Compound A-424],< 10,< 10,–
COc1ccc(CN/C(=N/C(=O)c2ccccc2)Nc2cc(C(F)(F)F)[nH]n2)cc1 [Compound A-425],< 10,< 10,–
Cc1ccc(-c2cc(NC(=NC(=O)c3ccc(C(F)(F)F)cc3)NC(C)(C)C)[nH]n2)cc1 [Compound A-426],< 10,–,> 10

Structure (SMILES),IC50 (F1F0-ATPase) [µM],EC50 (Ramos cells) [µM],EC50 (Ramos cells; Homo sapiens) [µM]
Cc1ccc(-c2cc(N/C(=N\C(=O)c3ccc(F)c(F)c3)NC(C)(C)C)[nH]n2)cc1 [Compound A-427],< 10,< 10,–
Cc1ccc(-c2cc(N/C(=N\C(=O)c3ccc(F)c(F)c3)Nc3cc(F)cc(Cl)c3)[nH]n2)cc1 [Compound A-428],< 10,> 10,–
CC(C)CN/C(=N/C(=O)c1cccc(S(C)(=O)=O)c1)Nc1cc(-c2ccc(F)cc2)n[nH]1 [Compound A-429],< 10,< 10,–
CCC(C)N/C(=N/C(=O)c1cccc(S(C)(=O)=O)c1)Nc1cc(-c2ccc(F)cc2)n[nH]1 (stereo not drawn) [Compound A-430],< 10,< 10,–
CCc1ccc(-c2cc(N/C(=N\C(=O)c3ccc(F)c(F)c3)NC(C)(C)C)[nH]n2)cc1 [Compound A-431],< 10,< 10,–
CCc1ccc(-c2cc(N/C(=N\C(=O)c3ccc(C(F)(F)F)cc3)NC(C)(C)C)[nH]n2)cc1 [Compound A-432],< 10,> 10,–
Cc1ccc(-c2cc(N/C(=N\C(=O)c3ccc(F)c(F)c3)NC(C)(C)C)[nH]n2)cc1F [Compound A-433],< 10,< 10,–
Cc1ccc(-c2cc(NC(=NC(=O)c3ccc(C(F)(F)F)cc3)NC(C)(C)C)[nH]n2)cc1F [Compound A-434],< 10,–,> 10
CC(C)(C)NC(=NC(=O)c1ccc(F)c(F)c1)Nc1cc(-c2ccccc2)n[nH]1 [Compound A-435],< 10,–,< 10
O=C(/N=C(/Nc1cc(F)cc(Cl)c1)Nc1cc(-c2ccccc2)n[nH]1)c1ccc(F)c(F)c1 [Compound A-436],< 10,> 10,–
CC(C)(C)N/C(=N/C(=O)c1cccc(C(F)(F)F)c1)Nc1cc(-c2ccc(Cl)cc2)n[nH]1 [Compound A-437],< 10,< 10,–
CC(C)(C)N/C(=N/C(=O)c1cccc(F)c1)Nc1cc(-c2cccc(Cl)c2)n[nH]1 [Compound A-438],< 10,< 10,–
CC(C)(C)NC(=NC(=O)c1ccc(C(F)(F)F)cc1)Nc1cc(-c2cccc(Cl)c2)[nH]n1 [Compound A-439],< 10,–,< 10
O=C(N=C(NCc1ccc(F)cc1Cl)Nc1cc(-c2ccc(F)cc2)n[nH]1)c1ccc(F)c(F)c1 [Compound A-440],< 10,–,< 10
O=C(/N=C(/Nc1cc(F)cc(Cl)c1)Nc1cc(-c2ccc(F)cc2)n[nH]1)c1ccc(F)c(F)c1 [Compound A-441],< 10,< 10,–
O=C(N=C(Nc1cc(F)cc(Cl)c1)Nc1cc(-c2cccc(Cl)c2)[nH]n1)c1ccc(F)c(F)c1 [Compound A-442],< 10,–,< 10
O=C(/N=C(/NCc1ccc(F)cc1Cl)Nc1cc(-c2ccc(F)cc2)n[nH]1)c1ccc(C(F)(F)F)cc1 [Compound A-443],< 10,< 10,–
O=C(/N=C(/NCc1ccc(F)cc1Cl)Nc1cc(-c2cccc(Cl)c2)n[nH]1)c1ccc(C(F)(F)F)cc1 [Compound A-444],< 10,> 10,–
O=C(/N=C(/NCc1ccc(F)cc1Cl)Nc1cc(-c2ccc(Cl)cc2)n[nH]1)c1ccc(C(F)(F)F)cc1 [Compound A-445],< 10,< 10,–
O=C(N=C(Nc1cc(F)cc(Cl)c1)Nc1cc(-c2cccc(Cl)c2)[nH]n1)c1ccc(C(F)(F)F)cc1 [Compound A-446],< 10,–,> 10
O=C(/N=C(/Nc1cc(F)cc(Cl)c1)Nc1cc(-c2ccc(Cl)cc2)n[nH]1)c1ccc(C(F)(F)F)cc1 [Compound A-447],< 10,> 10,–
CC(C)(C)NC(=NC(=O)c1cccc(C(F)(F)F)c1)Nc1cc(-c2ccc(F)cc2)n[nH]1 [Compound A-448],< 10,–,< 10
O=C(/N=C(/NCc1ccc(F)cc1Cl)Nc1cc(-c2ccc(F)cc2)n[nH]1)c1cccc(C(F)(F)F)c1 [Compound A-449],< 10,< 10,–
O=C(N=C(Nc1cc(F)cc(Cl)c1)Nc1cc(-c2ccc(F)cc2)n[nH]1)c1cccc(C(F)(F)F)c1 [Compound A-450],< 10,–,< 10
CC(C)(C)N/C(=N/C(=O)c1cccc(Cl)c1)Nc1cc(-c2ccc(F)cc2)n[nH]1 [Compound A-451],< 10,< 10,–
